Like-named read-outs stand apart in the source and are kept apart here.
Biological target: T1, P2X7 receptor (Homo sapiens, UniProt Q99572)
T1 construct: host or cells: THP-1 cells differentiated with LPS and IFN-γ
T1 sequence (Q99572 1-595): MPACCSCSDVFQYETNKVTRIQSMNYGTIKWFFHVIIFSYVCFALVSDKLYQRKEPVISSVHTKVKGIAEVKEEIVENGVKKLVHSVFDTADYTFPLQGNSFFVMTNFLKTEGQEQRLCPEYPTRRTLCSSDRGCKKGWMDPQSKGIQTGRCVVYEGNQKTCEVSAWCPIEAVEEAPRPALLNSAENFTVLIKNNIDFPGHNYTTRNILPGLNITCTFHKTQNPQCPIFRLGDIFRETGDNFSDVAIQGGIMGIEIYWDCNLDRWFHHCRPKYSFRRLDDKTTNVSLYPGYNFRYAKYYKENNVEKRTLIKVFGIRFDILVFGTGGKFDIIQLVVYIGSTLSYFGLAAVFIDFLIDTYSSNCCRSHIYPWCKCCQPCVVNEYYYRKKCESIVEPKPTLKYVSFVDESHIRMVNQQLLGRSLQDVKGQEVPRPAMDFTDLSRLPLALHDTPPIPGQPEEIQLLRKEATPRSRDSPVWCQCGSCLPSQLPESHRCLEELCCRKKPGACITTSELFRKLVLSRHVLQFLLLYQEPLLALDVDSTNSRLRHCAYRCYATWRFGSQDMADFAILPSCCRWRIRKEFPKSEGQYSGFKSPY
Assay: Alternate method for IL-1β release assay (differentiated THP-1 cells, BzATP-stimulated, ELISA)
Assay type: cell-based
Details: P2X7; for inhibition at 0.3 µM: read-out: IL-1β % inhib @ 0.3 μM; for inhibition at 0.1 µM: read-out: IL-1β % inhib @ 0.1 μM
Protocol: Alternate Method for IL-1β Release Assay
THP-1 cells (ATCC Cat #285-IF-100) are plated in 96 well plates at a concentration of 200,000 cells per well and allowed to differentiate in RPMI-1640 media (ATCC Cat #30-2001) containing 10% FBS, 100 IU/mL penicillin, 100 ug/mL streptomycin, 100 ng/mL LPS and 100 ng/mL IFN-γ for 16 hours. Following differentiation, the cells are treated for an additional 2 hours in RPMI-1640 media containing 100 IU/mL penicillin, 100 ug/mL streptomycin and fresh LPS at 100 ng/mL. The cells are then pretreated for 30 minutes with the compound of interest at the appropriate concentration in RPMI media containing 100 IU/mL penicillin, 100 ug/mL streptomycin. Following the pretreatment 2′,3′-O-(4-benzoylbenzoyl)-adenosine 5′-triphosphate (Sigma Aldrich Cat# B6396) is added to a final concentration of 250 uM and the cells incubated for an additional 45 minutes. 30 uL of cell supernatant is then collected and IL-1β levels determined via ELISA (R&D systems Cat. # HSLB50) according to manufacturers recommendations using the Tecan Safire plate reader. Background adjusted IL-1β levels of drug treated and non-treated cells are used to calculate the percent inhibition.

[1] = 0.3 μM compound (asterisk symbols)
[2] = 0.1 μM compound (symbols + to ++++)
[3] = 0.3 μM compound (symbols * to ****)

SMILES	inhibition at 0.3 µM [1]	inhibition at 0.3 µM [3]	also measured
Cc1cc(C(=O)N2CCc3c(ncnc3NCC34CC5CC(CC(C5)C3)C4)C2)n(C(C)(C)C)n1 [Compound 151]	25 to 50%		
CC(CCN1CCc2c(ncnc2NCC23CC4CC(CC(C4)C2)C3)C1)CC(C)(C)C (stereo not drawn) [Compound 163]	> 75%		
COc1ccc(CN2CCc3c(ncnc3NCC34CC5CC(CC(C5)C3)C4)C2)cc1OC [Compound 177]	0 to 25%		
Cc1nc(S(=O)(=O)N2CCc3c(ncnc3NCC34CC5CC(CC(C5)C3)C4)C2)cn1C [Compound 22]	0 to 25%		
O=C(Cc1ccccc1Br)N1CCc2c(ncnc2NCC23CC4CC(CC(C4)C2)C3)C1 [Compound 153]	0 to 25%		
COc1ccc(C(=O)N2CCc3c(ncnc3NCC34CC5CC(CC(C5)C3)C4)C2)cc1OC [Compound 159]	> 75%		
N#Cc1cccc(C(=O)N2CCc3c(ncnc3NCC34CC5CC(CC(F)(C5)C3)C4)C2)c1 [Compound 333]			inhibition at 0.1 µM [2]: 25 to 50%
c1nc2c(c(NCC34CC5CC(CC(C5)C3)C4)n1)CCN(CC1CC1)C2 [Compound 168]	0 to 25%		
O=C(CN1CCN(CC(=O)N2CCc3c(ncnc3NCC34CC5CC(CC(C5)C3)C4)C2)CC1)N1CCOCC1 [Compound 267]		0 to 25%	
O=C(CN1CCN(CCn2cccc2)CC1)N1CCc2c(ncnc2NCC2C3CC4CC(C3)CC2C4)C1 (stereo not drawn) [Compound 303]		25 to 50%	
c1nc2c(c(NCC34CC5CC(CC(C5)C3)C4)n1)CCN(Cc1ccc3c(c1)OCO3)C2 [Compound 175]	25 to 50%		
COc1cc(CN2CCc3c(ncnc3NCC34CC5CC(CC(C5)C3)C4)C2)ccc1F [Compound 240]		> 75%	
O=C(O[C@@H]1CCOC1)N1CCc2c(ncnc2NCC23CC4CC(CC(C4)C2)C3)C1 [Compound 250, 4-[(Adamantan-1-ylmethyl)-amino]-5,8-dihydro-6H-pyrido[3,4-d]pyrimidine-7-carboxylic acid (R)-(tetrahydro-furan-3-yl)ester]			inhibition at 0.1 µM [2]: 0 to 25%
O=C(CN1CCCCCC1)N1CCc2c(ncnc2NCC2C3CC4CC(C3)CC2C4)C1 (stereo not drawn) [Compound 275]		0 to 25%	
COc1ccc(CC(=O)N2CCc3c(ncnc3NCC34CC5CC(CC(C5)C3)C4)C2)cc1 [Compound 80]	> 75%		
CC(C)N(C)CC(=O)N1CCc2c(ncnc2NCC2C3CC4CC(C3)CC2C4)C1 (stereo not drawn) [Compound 313]		0 to 25%	
CCN(C)CC(=O)N1CCc2c(ncnc2NCC2C3CC4CC(C3)CC2C4)C1 (stereo not drawn) [Compound 282]		0 to 25%	
O=C(CN1CCc2ccccc2C1)N1CCc2c(ncnc2NCC2C3CC4CC(C3)CC2C4)C1 (stereo not drawn) [Compound 274]		25 to 50%	
COc1cc(CN2CCc3c(ncnc3NCC34CC5CC(CC(C5)C3)C4)C2)ccc1OCc1ccccc1 [Compound 199]		0 to 25%	
O=C(c1c(F)cccc1F)N1CCc2c(ncnc2NCC23CC4CC(CC(C4)C2)C3)C1 [Compound 102]	50 to 75%		
C[C@H](NC(=O)OC(C)(C)C)C(=O)N1CCc2c(ncnc2NCC(O)C23CC4CC(CC(C4)C2)C3)C1 (stereo partly drawn) [Compound 708, {(S)-2-[4-(2-Adamantan-1-yl-2-hydroxy-ethylamino)-5,8-dihydro-6H-pyrido[3,4-d]pyrimidin-7-yl]-1-methyl-2-oxo-ethyl}-carbamic acid tert-butyl ester]			inhibition at 0.03 µM (at 0.03 μM (asterisk symbols), read-out: IL-1β % inhib @ 0.3 μM or @ 0.03 μM): 50 to 75%
O=C(c1ccc(Cl)nc1)N1CCc2c(ncnc2NCC23CC4CC(CC(C4)C2)C3)C1 [Compound 136]	0 to 25%		
O=C(CN1CCC(Cc2ccccc2)CC1)N1CCc2c(ncnc2NCC23CC4CC(CC(C4)C2)C3)C1 [Compound 264]		25 to 50%	
c1ccc(Oc2cccc(CN3CCc4c(ncnc4NCC45CC6CC(CC(C6)C4)C5)C3)c2)cc1 [Compound 179]	25 to 50%		
O=C(SCc1ccc(F)cc1)N1CCc2c(ncnc2NCC23CC4CC(CC(C4)C2)C3)C1 [Compound 335]			inhibition at 0.1 µM [2]: 0 to 25%
COc1cc(CN2CCc3c(ncnc3NCC34CC5CC(CC(C5)C3)C4)C2)cc(OC)c1 [Compound 244]		> 75%	
O=C(c1ccc2ccccc2c1)N1CCc2c(ncnc2NCC23CC4CC(CC(C4)C2)C3)C1 [Compound 143]	50 to 75%		

SMILES	inhibition at 0.3 µM [1]	inhibition at 0.3 µM [3]	also measured
CN(C)CCN1CCN(CC(=O)N2CCc3c(ncnc3NCC34CC5CC(CC(C5)C3)C4)C2)CC1 [Compound 258]		0 to 25%	
O=C(SCc1c(F)cccc1Cl)N1CCc2c(ncnc2NCC23CC4CC(CC(C4)C2)C3)C1 [Compound 344]			inhibition at 0.1 µM [2]: 25 to 50%
CN(CC(=O)N1CCc2c(ncnc2NCC23CC4CC(CC(C4)C2)C3)C1)Cc1ccccc1 [Compound 260]			inhibition at 0.1 µM [2]: > 75%
Cc1cc(C)cc(S(=O)(=O)N2CCc3c(ncnc3NCC34CC5CC(CC(C5)C3)C4)C2)c1 [Compound 73]	0 to 25%		
O=C(c1ccno1)N1CCc2c(ncnc2NCC23CC4CC(CC(C4)C2)C3)C1 [Compound 149]			inhibition at 0.1 µM (0.1 μM compound (plus symbols)): > 75%
O=C(c1ccc2ccccc2n1)N1CCc2c(ncnc2NCC23CC4CC(CC(C4)C2)C3)C1 [Compound 154]	25 to 50%		
Brc1ccc(CN2CCc3c(ncnc3NCC34CC5CC(CC(C5)C3)C4)C2)cc1 [Compound 208]		> 75%	
CCCC(C)CN1CCc2c(ncnc2NCC23CC4CC(CC(C4)C2)C3)C1 (stereo not drawn) [Compound 193]	> 75%		
O=C(c1cccnc1)N1CCc2c(ncnc2NCC23CC4CC(CC(C4)C2)C3)C1 [Compound 257, 4-[(Adamantan-1-ylmethyl)-amino]-5,8-dihydro-6H-pyrido[3,4-d]pyrimidin-7-yl-pyridin-3-yl-methanone]			inhibition at 0.1 µM [2]: > 75%
CC12CC3(C)CC(C)(C1)CC(CNc1ncnc4c1CCN(Cc1ccccc1)C4)(C2)C3 [Compound 247]		25 to 50%	
O=C(OCCSCc1ccccc1)N1CCc2c(ncnc2NCC23CC4CC(CC(C4)C2)C3)C1 [Compound 334]			inhibition at 0.1 µM [2]: 25 to 50%
Fc1ccc(COc2ccc(CN3CCc4c(ncnc4NCC45CC6CC(CC(C6)C4)C5)C3)cc2)cc1 [Compound 233]		0 to 25%	
COc1ccc(C(=O)N2CCc3c(ncnc3NCC34CC5CC(CC(C5)C3)C4)C2)cc1 [Compound 90]	0 to 25%		
CCCN1CCc2c(ncnc2NCC23CC4CC(CC(C4)C2)C3)C1 [Compound 166]	0 to 25%		
COc1cc(CN2CCc3c(ncnc3NCC34CC5CC(CC(C5)C3)C4)C2)cc(Br)c1OC [Compound 205]		0 to 25%	
N#Cc1cccc(C(=O)N2CCc3c(ncnc3NCC34CC5CC(CC(C5)C3)C4)C2)c1 [Compound 97]			inhibition at 0.1 µM (0.1 μM compound (plus symbols)): > 75%
CCCCN1CCc2c(ncnc2NCC23CC4CC(CC(C4)C2)C3)C1 [Compound 189]	0 to 25%		
Cc1ccccc1S(=O)(=O)N1CCc2c(ncnc2NCC23CC4CC(CC(C4)C2)C3)C1 [Compound 56]	25 to 50%		
O=C(CN1CCC(N2CCOCC2)CC1)N1CCc2c(ncnc2NCC2C3CC4CC(C3)CC2C4)C1 (stereo not drawn) [Compound 299]		25 to 50%	
Fc1ccc(CN2CCc3c(ncnc3NCC34CC5CC(CC(C5)C3)C4)C2)cc1 [Compound 218]		> 75%	
FC(F)Oc1ccc(CN2CCc3c(ncnc3NCC34CC5CC(CC(C5)C3)C4)C2)cc1 [Compound 232]		0 to 25%	
Cc1nn(C)c(Cl)c1S(=O)(=O)N1CCc2c(ncnc2NCC23CC4CC(CC(C4)C2)C3)C1 [Compound 18]	0 to 25%		
O=C(c1ccc(C(F)(F)F)cc1)N1CCc2c(ncnc2NCC23CC4CC(CC(C4)C2)C3)C1 [Compound 98]	25 to 50%		
O=S(=O)(c1cccc(C(F)(F)F)c1)N1CCc2c(ncnc2NCC23CC4CC(CC(C4)C2)C3)C1 [Compound 15]	0 to 25%		
CN(CCC#N)CC(=O)N1CCc2c(ncnc2NCC2C3CC4CC(C3)CC2C4)C1 (stereo not drawn) [Compound 277]		0 to 25%	
Cc1ccc(CN(C)CC(=O)N2CCc3c(ncnc3NCC3C4CC5CC(C4)CC3C5)C2)cc1 (stereo not drawn) [Compound 318]		25 to 50%	
COc1ccc(S(=O)(=O)N2CCc3c(ncnc3NCC34CC5CC(CC(C5)C3)C4)C2)c(OC)c1 [Compound 53]	50 to 75%		
